Molecular target: T1, recombinant human aldose reductase (Homo sapiens, UniProt P15121)
T1 construct: made in house; host or cells: Baculovirus-insect cell system
Test: Aldose reductase inhibition (decrease with time in absorbance at 340 nm, NADPH / DL-glyceraldehyde)
Assay type: biochemical
Details: 0.1M phosphoric acid buffer, 25°C, absorbance 340 nm, read-out: IC₅₀
Description: A large amount of recombinant human aldose reductase was expressed in a Baculovirus-insect cell system by Nishimura et al method (Nishimura et al, J. Biol. Chem. volume 265, pages 9,788-9,792, 1990 and Biochem. Biophys. Acta. volume 1,078, pages 171-178, 1991; and Tanimoto and Nishimura, Experimental Medicine, volume 9, No. 5 (extra issue), pages 165-170, 1991). Purification was made by affinity chromatography, gel filtration and chromatofocusing until electrophoretically uniform aldose reductase was obtained.
To 0.1M phosphoric acid buffer solution (0.8 ml) was added 3mM NADPH (0.05 ml), DL-glyceral-dehyde (0.1 ml) and distilled water (0.04 ml). The mixture was left to stand at 25°C for three minutes. To the mixture was added aldose reductase solution (0.01 ml) in order to start a reaction. Measurement was made of reduction with time in absorbance of 340 nm at 25°C. The amount of enzyme that consumes 1µ mole of […] per minute was taken as a unit.
Enzyme activities were measured after aqueous inhibiting substance solution (0.04 ml each) having various concentrations in place of the distilled water (0.04 ml) under the same conditions as those for aldose reductase. IC₅₀ values that inhibit enzyme activity by 50% were calculated on the basis of enzyme activities measured in the presence or absence of the inhibitors. The inhibitors used include: 8,10-dicarboxy-2-methoxycarbonyl-1H-oxazo[5,4-h] pyrrolo[2,3-f]quinoline (Compound 1, abbreviated OPQ-8,10-DCA-2-ME); 8-carboxy-2,10-dimethoxycarbonyl-1H-oxazo[5,4-h] pyrrolo-[2,3-f]quinoline (Compound 2, abbreviated OPQ-8-CA-2,10-DME); 10-(N-n-amyl)carbamoyl-2,8-dicarboxy-1H-oxazo [5,4-h]pyrrolo[2,3-f]quinoline (Compound 3, abbreviated OPQ-2,8-DCA-10-AA); 10-(N-n-amyl)carbamoyl-8-carboxy-2-methoxy-carbonyl-1H-oxazo[5,4-h]pyrrolo[2,3-f]quinoline (Compound 4, abbreviated OPQ-8-CA-2-ME-10-AA); 2,10-dicarboxy-8-methoxycarbonyl-1H-oxazo[5,4-h] pyrrolo-[2,3-f]quinoline (abbreviated OPQ-2,10-DCA-8-ME); 10-carboxy-2,8-dimethoxycarbonyl-1H-oxazo[5,4-h] pyrrolo-[2,3-f]quinoline (abbreviated OPQ-10-CA-2,8-DME); 2,8,10-trimethoxycarbonyl-1H-oxazo[5,4-h]pyrrolo [2,3-f]-quinoline (abbreviated OPQ-2,8,10-TME); 10-carboxy-2-methoxycarbonyl-1H-oxazo[5,4-h] pyrrolo-[2,3-f]quinoline (abbreviated OPQ-10-CA-2-ME); 8,10-diethoxycarbonyl-2-methoxycarbonyl-1H-oxazo [5,4-hj]yrrolo[2,3-f]quinoline (abbreviated OPQ-2-ME-8,10-DME); 10-(N-n-amyl) carbamoyl-2,8-dimethoxycarbonyl-1H-oxazo[5,4-h]pyrrolo[2,3-f]quinoline (abbreviated OPQ-2,8-DME-10-AA); and 2,8,10-tri[(N-n-amyl)carbamoyl]-1H-oxazo[5,4-h] pyrrolo-[2,3-f]quinoline (abbreviated OPQ-2,8,10-TAA).

| SMILES | IC50 [µM] |
| --- | --- |
| COC(=O)c1cc2c([nH]1)c1c(C(=O)O)cc(C(=O)O)nc1c1ncoc21 [Compound 1, 8,10-dicarboxy-2-methoxycarbonyl-1H-oxazo[5,4-h] pyrrolo[2,3-f]quinoline] | 0.26 |
| COC(=O)c1cc2c([nH]1)c1c(C(=O)OC)cc(C(=O)O)nc1c1ncoc21 [Compound 2, 8-carboxy-2,10-dimethoxycarbonyl-1H-oxazo[5,4-h] pyrrolo-[2,3-f]quinoline] | 0.58 |
| CCCCCNC(=O)c1cc(C(=O)O)nc2c3ncoc3c3cc(C(=O)O)[nH]c3c12 [Compound 3, 10-(N-n-amyl)carbamoyl-2,8-dicarboxy-1H-oxazo [5,4-h]pyrrolo[2,3-f]quinoline] | 0.26 |
| CCCCCNC(=O)c1cc(C(=O)O)nc2c3ncoc3c3cc(C(=O)OC)[nH]c3c12 [Compound 4, 10-(N-n-amyl)carbamoyl-8-carboxy-2-methoxy-carbonyl-1H-oxazo[5,4-h]pyrrolo[2,3-f]quinoline] | 0.19 |
| CCCCCNC(=O)c1cc(C(=O)NCCCCC)c2c(n1)c1ncoc1c1cc(C(=O)NCCCCC)[nH]c12 [OPQ-2,8,10-TAA, 2,8,10-tri[(N-n-amyl)carbamoyl]-1H-oxazo[5,4-h] pyrrolo-[2,3-f]quinoline] | 77 |
| COC(=O)c1cc(C(=O)OC)c2c(n1)c1ncoc1c1cc(C(=O)OC)[nH]c12 [OPQ-2,8,10-TME, 2,8,10-trimethoxycarbonyl-1H-oxazo[5,4-h]pyrrolo [2,3-f]-quinoline] | > 100 |
| CCCCCNC(=O)c1cc(C(=O)OC)nc2c3ncoc3c3cc(C(=O)OC)[nH]c3c12 [OPQ-2,8-DME-10-AA, 10-(N-n-amyl) carbamoyl-2,8-dimethoxycarbonyl-1H-oxazo[5,4-h]pyrrolo[2,3-f]quinoline] | 93 |
| COC(=O)c1cc(C(=O)O)c2c(n1)c1ncoc1c1cc(C(=O)O)[nH]c12 [OPQ-2,10-DCA-8-ME, 2,10-dicarboxy-8-methoxycarbonyl-1H-oxazo[5,4-h] pyrrolo-[2,3-f]quinoline] | 2.9 |
| CCOC(=O)c1cc(C(=O)OCC)c2c(n1)c1ncoc1c1cc(C(=O)OC)[nH]c12 [OPQ-2ME-8,10-DEE, 8,10-diethoxycarbonyl-2-methoxycarbonyl-1H-oxazo [5,4-hj]yrrolo[2,3-f]quinoline] | > 100 |
| COC(=O)c1cc(C(=O)O)c2c(n1)c1ncoc1c1cc(C(=O)OC)[nH]c12 [OPQ-10-CA-2,8-DME, 10-carboxy-2,8-dimethoxycarbonyl-1H-oxazo[5,4-h] pyrrolo-[2,3-f]quinoline] | 1.3 |
| COC(=O)c1cc2c([nH]1)c1c(C(=O)O)ccnc1c1ncoc21 [OPQ-10-CA-2ME, 10-carboxy-2-methoxycarbonyl-1H-oxazo[5,4-h] pyrrolo-[2,3-f]quinoline] | 1.7 |

Reference: patent publication EP0670321A1, “Oxazopyrroloquinoline deivatives and use thereof” (MITSUBISHI GAS CHEMICAL COMPANY, INC., priority 1994, dated 1995)
